Results published in patent US20240166627A1, “Terpyridinedione compound or salt thereof, and preparation method and application thereof” (SHENZHEN SALUBRIS PHARMACEUTICALS CO., LTD., priority 2021, published 2024).
Values after ≈ are worked out from the molar mass of the structure shown.

Legend:
[1] = Pharmacokinetic experiment in Beagle dogs (IV and PO); assay type: in vivo; details: male, dog, plasma
Source text: Polyethylene glycol 400 (batch number: GORKREUT, Saen Chemical Technology (Shanghai) Co., Ltd.); DMSO (batch number: 20200319, GHTECH (Guangdong) Co., Ltd.); and normal saline (batch number: C20052604, Jiangxi Kelun Pharmaceutical Co., Ltd.). An LC-MS instrument (Thermo Fisher Ultimate 3000 UPLC, TSQ QUANTUM ULTRA TSQ Quantum GC).
5 male Beagle dogs with weights being 5 kg to 7 kg, purchased from Beijing Mars Biotechnology Co., Ltd. […]
After the above mixture is given to the dogs through intragastric administration (n=3) or intravenous administration (n=2), about 1 mL of blood is collected from the forelimb or hindlimb vein with a scalp needle, respectively, at 5 min (intravenous administration only), 15 min, 30 min, 1 h, 2 h, 4 h, 6 h, 8 h, 24 h to put into blood collection tubes containing EDTA-K2 anticoagulant; centrifugation is performed for 10 min at 4000 rpm to separate plasma; and then the tubes are stored at −80° C. for testing.
A certain amount of a test sample is accurately weighted and dissolved with DMSO to 2 mg/mL, as a stock solution. The stock solution is diluted to 30000, 10000, 3000, 1000, 300, 100, 50, 30, and 10 ng/mL by using acetonitrile:water (1:1), to obtain standard curve working solutions. 5 μL of the working solution is added to 45 μL of blank canine plasma; and well mixing is performed through vortex, to prepare into standard curve samples equivalent to plasma concentrations of 3000, 1000, 300, 100, 30, 10, 5, 3, and 1 ng/mL. 30 μL of the standard curve sample and the collected plasma sample (plasma collected at 5 min, 15 min, and 30 min of intravenous administration is diluted 5-fold) are added to 150 μL of a propranolol acetonitrile solution (internal standard, 50 ng/mL) to precipitate protein, then 100 μL of water is added to well mix through vortex; centrifugation is performed for 5 min at 4000 rpm; and supernatant is taken for LC-MS analysis. LC-MS detection conditions include the following.
Chromatographic column: Waters ACQUITY™ PREMIER HSS T3, 50*2.1 mm, 1.8 μm.
Mobile phase A: water (0.1% formic acid); mobile phase B: acetonitrile; flow rate: 0.5 mL/min; and gradient elution is shown in Table 3 below.
After LC-MS detection of blood drug concentration, and a non-compartment model of WinNonlin 6.1 software is adopted to calculate pharmacokinetic parameters of beagle dogs after administration.

[2] = Determination of solubility; assay type: physicochemical; details: aqueous buffer, thermodynamic from solid, 37° C. 1 h
Description: About 0.5 mg of a to-be-tested sample in a centrifuge tube is weighted, an appropriate amount of DMSO is added to completely dissolve the sample, and then methanol is added to make up to 1 ml.
(If there are more pH values to be investigated, the preparation method may be deduced by analogy).
3. The prepared control solution and test solution are simultaneously put into a 37° C. water bath and heated for 1 h, after 1 h, the solutions are taken out and cooled to room temperature, and then the solutions are filtered with a 0.22 μm filter membrane for sample injection.
4. The concentration of the sample in the test solution is calculated according to C=(A*(ms/vs))/AS, and experiment results are shown in Table 2.
Note: ms, vs and AS are the weight, volume and peak area of the sample in the control solution, respectively.
A is the peak area of the test solution.

[3] = system: production of TNFα in U937; experiment: Releasing TNFα from U937 induced by LPS; assay type: cell-based; details: Homo sapiens, U-937; PMA-differentiated U937, LPS 100 ng/ml, 4 h; read-out: IC50 value that the compound inhibits the production of TNFα
Source text: Cytokine regulation in human monocytes has shown that the p38 pathway is the key to the biosynthesis of a plurality of pro-inflammatory cytokines including TNFα, IL-1β and IL-6. Therefore, the inhibition of the p38 MAPK pathway is to reduce inflammatory response by reducing the biosynthesis of the pro-inflammatory cytokines. […] This is a reflection of the effect of the compound in the present invention to facilitate reduction of inflammation, which is useful in the treatment of various diseases, including chronic inflammatory diseases, acute inflammatory diseases, or self-inflammatory diseases. The potency and efficacy of the p38 inhibitor in blocking cytokine production are evaluated using a human U937 cell line.
A 1640 medium with an article number being A10491-01, Gibco; penicillin-streptomycin with an article number being 15140-122, Gibco; fetal bovine serum with an article number being 10099-141C, Gibco; PBS with an article number being 10010-031, Gibco; LPS with an article number being L2880, Sigma; PMA with an article number being P1585, Sigma; dimethyl sulfoxide with an article number being D8418-1L, Sigma; and a TNFα kit with an article number being K151QWD-4, MSD.
A 96-well plate with an article number being 3599, Corning; a plate-vibrating device with an article number being QB-9002, QILINBEIER; a centrifuge with an article number being 5810R, Eppendorf; a carbon dioxide incubator with an article number being 371, Thermo; a counter with an article number being C10281, Gibco; a microscope with an article number being CKX41, OLYMPUS; and an MSD plate reader with an article number being 1201 MESO SECTOR 600, MSD.
U937, ATCC with an article number being CRL-1593.2.
About 2 mg of a drug is weighted; a mother solution is prepared to 10 mM (which is calculated by free alkali) by means of DMSO; and the mother solution is diluted 10-fold to 1 mM, and then is successively diluted 4-fold to 250 μM, 62.5 μM, 15.6 μM, 3.9 μM, 0.97 μM, 0.24 μM, and 0.061 μM. The above series of diluted DMSO drugs is diluted 20-fold as working solutions by using media.
At Day 0, 10000/well inoculation is performed, stimulation is performed for 48 h with 20 ng/ml of PMA, and culture is performed at 37° C., 5% CO2. • At Day 2, 1. Supernatant is removed from differentiated U937, cleaning is performed once with PBS, and 96 μl of the 1640 medium is added. • 2. 2 μl of the compound containing (DMSO with a final concentration being 0.1%), and culture is performed for 30 min at 37° C., 5% CO2. • 3. 2 μl of LPS (a final concentration being 100 ng/ml) is added, cells are stimulated, and culture is performed for 4 h at 37° C., 5% CO2. • 4. Centrifugation is performed, supernatant is taken, and content of TNFα in the supernatant is determined through ELISA.
The content of TNFα corresponding to each well is calculated by using a standard curve in the kit.
The compound IC50 is calculated by using a GraphPad nonlinear fitting formula, and for an experimental result, refer to Table 1.

p38β = p38β (Homo sapiens, UniProt Q15759); experiment: p38β kinase screening experiment (ADP-Glo); assay type: biochemical; details: ATP 100 μM in the substrate/ATP mix, 60 min; read-out: IC50 value that the compound inhibits p38β
Description: A certain amount of the compound is weighed, prepared into a 10/50 mM mother solution with DMSO, diluted 3 folds with DMSO, and diluted to 10 concentration points as a compound working solution.
50 nL of the diluted compound working solution is transferred to each well of a reaction plate (784075, Greiner) with Echo 655, then 2.5 μL (2 ng/μL) of a p38β kinase solution is added; after 10 minutes at room temperature, 2.5 μL of a mixed solution of a kinase substrate (0.4 mg/mL) and ATP (100 μM) is added, for reaction for 60 min at room temperature; and 4 μL of an ADP Glo reagent is added, for incubation for 40 min at room temperature. 8 μL of a kinase detection reagent is added, for incubation for 40 min at room temperature; and finally a light-emitting signal is read on Envision 2104.

p38β, sequence (Q15759 whole entry): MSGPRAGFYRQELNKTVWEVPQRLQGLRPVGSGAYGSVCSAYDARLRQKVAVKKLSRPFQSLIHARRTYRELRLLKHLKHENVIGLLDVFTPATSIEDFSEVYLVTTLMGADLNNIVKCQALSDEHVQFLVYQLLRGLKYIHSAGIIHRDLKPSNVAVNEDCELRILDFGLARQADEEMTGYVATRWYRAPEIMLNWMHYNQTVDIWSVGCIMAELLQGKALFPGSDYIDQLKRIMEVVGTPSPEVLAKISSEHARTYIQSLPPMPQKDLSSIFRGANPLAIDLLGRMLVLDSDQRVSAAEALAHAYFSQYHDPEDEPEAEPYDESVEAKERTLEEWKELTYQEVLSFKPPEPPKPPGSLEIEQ

AUC(0-t) ([1]; IV 1 mg/kg): 1530 ng·h/mL
Cmax ([1]; IV 1 mg/kg): 657 ng/mL
clearance ([1]; IV 1 mg/kg): 10.7 mL/min/kg
AUC(0-t) ([1]; PO 5 mg/kg): 14400 ng·h/mL
Cmax ([1]; PO 5 mg/kg): 2000 ng/mL
bioavailability ([1]; PO 5 mg/kg vs IV 1 mg/kg): 189%
solubility at 1 h ([2]; pH = 2.0, PBS buffer): 56.8 µg/mL (≈ 111 µM)
solubility at 1 h ([2]; pH = 7.4, PBS buffer): 26.8 µg/mL (≈ 52.1 µM)
IC50 [3]: 10.4 nM
IC50 (p38β): 5970 nM
Structure (SMILES): Cc1cnc(-c2ccnc(C(C)(C)O)n2)cc1-n1c(C)cc(OCc2ncc(F)cc2F)c(Cl)c1=O (racemic) [Comparative example 1]
